# Data taken from US9574188B2, “DNA restriction library tagging and analysis” (Harborgen Biotech LLC, priority 2014, dated 2017).
# Test system: RKO cell line
# Assay: Effect of methylation inhibitor on global methylation percentage (restriction library qPCR)
# Format: cell-based
# Method: The following steps are performed to create (including amplify) the restriction library, and measure methylation level: • 1. Add equal amount of a genomic DNA into two tubes containing the Msp I restriction library making system or Hpa II restriction library making system. • 2. Incubate the two tubes in PCR instrument. Repeat the following thermal cycle 100 times: 22 degree Celsius for 2 minutes, 16 degree 2 minutes, and 4 degree 2 minutes.
# • Hpa II, Msp I and Cla I have more than 75% activity left at 22 degree. The generated restriction fragments and adaptors have the compatible CG-5′ overhang that contain phosphate at 5′ ends. At 4 degree Celsius, the compatible overhangs anneal together then T4 DNA ligases join the two annealed ends. • 3. […] Consequently the hetero-ligation is no longer recognizable by Cla I, Msp I or Hpa II. • 4. […] The proportion of hetero-ligation products becomes higher and higher, while the proportion of self-ligation products becomes lower and lower accompanied with repeating the cycle digestion-ligation reaction. • 6. All restriction sites in the Msp I restriction library making system disappear after hetero-ligation between restriction fragments and the adapters at reaction end, but not the methylated restriction sites (CCGG) in Hpa II restriction library making system. • 7. […]
smiles,measurement,setting,value
"Nc1ncn([C@H]2C[C@H](O)[C@@H](CO)O2)c(=O)n1 [DAC, 5-aza-2′ deoxycytidine]",methylation percentage of RKO cells after methylation inhibitor treatment,"5 μM for 3 days prior to harvest, decreased from 96.7% (before treatment)",35.6%
same,effect on the methylation level of RKO cell line,FIG. 9 legend,significantly affected
